Drawing on ChEMBL document CHEMBL4840362, “Diterpenoids from the whole plants of Croton yunnanensis and their bioactivities” (Bioorg Med Chem, 2021), this text covers Activity and IC50 for ten compounds.

Calls of active or inactive are those of the source. The rule behind the calls is not given here.

Type in all cases: functional, cell-based
For test [1], the system named is SMMC-7721. Nature of the test: Cytotoxicity against human SMMC-7721 cells assessed as inhibition of cell growth at 40 uM measured after 48 hrs by MTS assay.
The subject of test [2] is HL-60. Nature of the test: Cytotoxicity against human HL-60 cells assessed as inhibition of cell growth at 40 uM measured after 48 hrs by MTS assay. Background: Tetrazolium dyes change colour on reduction, which living cells bring about.
Test [3] deals with A549. Description: Cytotoxicity against human A549 cells assessed as inhibition of cell growth at 40 uM measured after 48 hrs by MTS assay.
In test [4] the test system is MCF7. Nature of the test: Cytotoxicity against human MCF7 cells assessed as inhibition of cell growth at 40 uM measured after 48 hrs by MTS assay.
The subject of test [5] is SW480. Nature of the test: Cytotoxicity against human SW480 cells assessed as inhibition of cell growth at 40 uM measured after 48 hrs by MTS assay.
The subject of test [6] is RAW264.7. Description: Antiinflammatory activity against mouse RAW264.7 cells assessed as inhibition of LPS induced nitric oxide production at 50 uM followed by LPS stimulation incubated for 18 hrs by Griess reagent based assay. On the technique in general: The Griess reaction detects nitrite, a stable product of nitric oxide.
Test [7] deals with SMMC-7721. Nature of the test: Cytotoxicity against human SMMC-7721 cells assessed as inhibition of cell growth measured after 48 hrs by MTS assay. As to conditions: SMMC-7721, 48 h.
For test [8], the system named is HL-60. Nature of the test: Cytotoxicity against human HL-60 cells assessed as inhibition of cell growth measured after 48 hrs by MTS assay. As to conditions: HL-60, 48 h.
Test [9] relates to A549. Nature of the test: Cytotoxicity against human A549 cells assessed as inhibition of cell growth measured after 48 hrs by MTS assay. As to conditions: A549, 48 h.

Regarding `COC(=O)[C@@H]1C=CC[C@@H]2C13CC[C@@H](C)[C@]21C[C@@H](c2ccoc2)O[C@@H]1O3`, the result in [1], in test [2], in test [3], in test [4], in [5] and in [6] was inactive.

For the compound `COC(=O)C1=CCC[C@@H]2C13CC[C@H](C)[C@@]21C[C@H](c2ccoc2)O[C@H]1O[C@@H]3O`, the outcome in [1], in test [2], in test [3], in [4], in test [5] and in [6] was inactive.

As for `COC(=O)c1cccc2c1CC[C@@H](C)[C@]21C[C@@H](c2ccoc2)OC1=O`, the result in test [1], in [2], in test [3], in [4], in test [5] and in [6] was inactive.

For the compound `COC(=O)C1=CCC[C@@H]2[C@]13CC[C@H](C)[C@@]21C[C@H](c2ccoc2)O[C@H]1OC3=O`, the result in [1], in test [2], in test [3], in test [4], in test [5] and in test [6] was inactive.

On to `COC(=O)C1=CCC[C@H]2C1=CC[C@@H](C)[C@]21C[C@@H](c2ccoc2)OC1=O`, for which the result in [1], in test [2], in [3], in [4], in test [5] and in test [6] was inactive.

Consider `COC(=O)C12C=CC[C@@H]3[C@@H]1CC[C@H](C)[C@@]31C[C@H](c3ccoc3)O[C@H]1O2`, for which the result in test [1], in test [2], in [3], in test [4], in test [5] and in [6] was inactive.

In general, IC50 refers to the concentration that inhibits the measured activity by half. As to `CC(=O)O[C@H]1C(=O)[C@@]2(C)[C@H]([C@H](OC(=O)c3ccccc3)[C@]3(O)C[C@H](OC(=O)[C@H](O)[C@@H](NC(=O)c4ccccc4)c4ccccc4)C(C)=C1C3(C)C)[C@]1(OC(C)=O)CO[C@@H]1C[C@@H]2O` [PACLITAXEL], the results for the IC50 in [7], in test [8] and in [9] were 143 nM, under 0.008 µM and under 0.008 µM, respectively.

Take `COc1c(C)cc2c(c1O)[C@]1(C)CCC(=O)C(C)(C)C1=C(O)C2=O`: the IC50 in [7] amounted to 4470 nM; in test [8] it was 14.4 µM; in [9] it was 27.4 µM. In addition, the result in test [6] was inactive.

For the compound `COC(=O)C1=CCC[C@H]2C13CC[C@@H](C)[C@]21C[C@@H](c2ccoc2)O[C@@H]1O3`, the outcome in test [1], in test [2], in [3], in [4], in test [5] and in test [6] was inactive.

Turning to `CCCCCCCCCC(=O)O[C@@H]1[C@@H](C)[C@@]2(O)[C@@H](C=C(CO)C[C@]3(O)C(=O)C(C)=C[C@@H]23)[C@@H]2C(C)(C)[C@]12OC(C)=O`, the outcome in [1], in test [2], in test [3], in test [4], in [5] and in test [6] was inactive.
